Measured values: patent US8772343B2, “Chemical compounds” (Pfizer Limited, priority 2010, dated 2014)

The compounds below were run against T1, Nav1.7 (or SCN9A) channel (Homo sapiens, UniProt Q15858) (assay: Nav1.7 PatchXpress automated whole-cell electrophysiology in HEK cells expressing hSCN9A). Details: estimated IC50 from single point data, PatchXpress assay, held at V1/2 of inactivation, read-out: Nav1.7 EIC50.
T1 construct: expressed in transfected cells
Assay type: cell-based
Experimental: The ability of the compounds of formula (I) to block the Nav1.7 (or SCN9A) channel were measured using the assay described below.
Human Embryonic Kidney (HEK) cells were transfected with an hSCN9A construct using lipofectamine reagent (Invitrogen), using standard techniques. Cells stably expressing the hSCN9A constructs were identified by their resistance to G-418 (400 μg/ml). Clones were screened for expression using the whole-cell voltage-clamp technique.
HEK cells stably transfected with hSCN9A were maintained in DMEM medium supplemented with 10% heat-inactivated fetal bovine serum and 400 μg/ml G-418 in an incubator at 37° C. with a humidified atmosphere of 10% CO2. For HTS, cells were harvested from flasks by trypsinization and replated in an appropriate multi-well plate (typically 96 or 384 wells/plate) such that confluence would be achieved within 24 hours of plating. For electrophysiological studies, cells were removed from the culture flask by brief trypsinization and re-plated at low density onto glass cover slips. Cells were typically used for electrophysiological experiments within 24 to 72 hours after plating.
Cover slips containing HEK cells expressing hSCN9A were placed in a bath on the stage of an inverted microscope and perfused (approximately 1 ml/minutes) with extracellular solution of the following composition: 138 mM NaCl, 2 mM CaCl2, 5.4 mM KCl, 1 mM MgCl2, 10 mM glucose, and 10 mM HEPES, pH 7.4, with NaOH. […] The osmolarity of the extracellular and intracellular solutions was 300 mOsm/kg and 295 mOsm/kg, respectively. All recordings were made at room temperature (22-24° C.) using AXOPATCH 200B amplifiers and PCLAMP software (Axon Instruments, Burlingame, Calif.).
hSCN9A currents in HEK cells were measured using the whole-cell configuration of the patch-clamp technique (Hamill et al., 1981). Uncompensated series resistance was typically 2 to 5 mega ohms and >85% series resistance compensation was routinely achieved. As a result, voltage errors were negligible and no correction was applied. Current records were acquired at 20 to 50 KHz and filtered at 5 to 10 KHz.
HEK cells stably transfected with hSCN9A were viewed under Hoffman contrast optics and placed in front of an array of flow pipes emitting either control or compound-containing extracellular solutions. All compounds were dissolved in dimethyl sulfoxide to make 10 mM stock solutions, which were then diluted into extracellular solution to attain the final concentrations desired. […] The voltage-dependence of inactivation was determined by applying a series of depolarizing prepulses (8 sec long in 10 mV increments) from a negative holding potential. The voltage was then immediately stepped to 0 mV to assess the magnitude of the sodium current. Currents elicited at 0 mV were plotted as a function of prepulse potential to allow estimation of the voltage at which 50% of the channels were inactivated (midpoint of inactivation or V1/2). Compounds were tested for their ability to inhibit hSCN9A sodium channels by activating the channel with a 20 msec voltage step to 0 mV following an 8 second conditioning prepulse to the empirically determined V1/2. Compound effect (% inhibition) was determined by difference in current amplitude before and after application of test compounds. For ease of comparison, “estimated IC-50” (EIC50) values were calculated from single point electrophysiology data by the following equation, (tested concentration, uM)×(100-% inhibition/% inhibition). Inhibition values<20% and >80% were excluded from the calculation.
Electrophysiological assays were conducted with PatchXpress 7000 hardware and associated software (Molecular Devices Corp). All assay buffers and solutions were identical to those used in conventional whole-cell voltage clamp experiments described above. hSCN9A cells were grown as above to 50%-80% confluency and harvested by trypsinization. […]

T1 sequence (Q15858 whole entry): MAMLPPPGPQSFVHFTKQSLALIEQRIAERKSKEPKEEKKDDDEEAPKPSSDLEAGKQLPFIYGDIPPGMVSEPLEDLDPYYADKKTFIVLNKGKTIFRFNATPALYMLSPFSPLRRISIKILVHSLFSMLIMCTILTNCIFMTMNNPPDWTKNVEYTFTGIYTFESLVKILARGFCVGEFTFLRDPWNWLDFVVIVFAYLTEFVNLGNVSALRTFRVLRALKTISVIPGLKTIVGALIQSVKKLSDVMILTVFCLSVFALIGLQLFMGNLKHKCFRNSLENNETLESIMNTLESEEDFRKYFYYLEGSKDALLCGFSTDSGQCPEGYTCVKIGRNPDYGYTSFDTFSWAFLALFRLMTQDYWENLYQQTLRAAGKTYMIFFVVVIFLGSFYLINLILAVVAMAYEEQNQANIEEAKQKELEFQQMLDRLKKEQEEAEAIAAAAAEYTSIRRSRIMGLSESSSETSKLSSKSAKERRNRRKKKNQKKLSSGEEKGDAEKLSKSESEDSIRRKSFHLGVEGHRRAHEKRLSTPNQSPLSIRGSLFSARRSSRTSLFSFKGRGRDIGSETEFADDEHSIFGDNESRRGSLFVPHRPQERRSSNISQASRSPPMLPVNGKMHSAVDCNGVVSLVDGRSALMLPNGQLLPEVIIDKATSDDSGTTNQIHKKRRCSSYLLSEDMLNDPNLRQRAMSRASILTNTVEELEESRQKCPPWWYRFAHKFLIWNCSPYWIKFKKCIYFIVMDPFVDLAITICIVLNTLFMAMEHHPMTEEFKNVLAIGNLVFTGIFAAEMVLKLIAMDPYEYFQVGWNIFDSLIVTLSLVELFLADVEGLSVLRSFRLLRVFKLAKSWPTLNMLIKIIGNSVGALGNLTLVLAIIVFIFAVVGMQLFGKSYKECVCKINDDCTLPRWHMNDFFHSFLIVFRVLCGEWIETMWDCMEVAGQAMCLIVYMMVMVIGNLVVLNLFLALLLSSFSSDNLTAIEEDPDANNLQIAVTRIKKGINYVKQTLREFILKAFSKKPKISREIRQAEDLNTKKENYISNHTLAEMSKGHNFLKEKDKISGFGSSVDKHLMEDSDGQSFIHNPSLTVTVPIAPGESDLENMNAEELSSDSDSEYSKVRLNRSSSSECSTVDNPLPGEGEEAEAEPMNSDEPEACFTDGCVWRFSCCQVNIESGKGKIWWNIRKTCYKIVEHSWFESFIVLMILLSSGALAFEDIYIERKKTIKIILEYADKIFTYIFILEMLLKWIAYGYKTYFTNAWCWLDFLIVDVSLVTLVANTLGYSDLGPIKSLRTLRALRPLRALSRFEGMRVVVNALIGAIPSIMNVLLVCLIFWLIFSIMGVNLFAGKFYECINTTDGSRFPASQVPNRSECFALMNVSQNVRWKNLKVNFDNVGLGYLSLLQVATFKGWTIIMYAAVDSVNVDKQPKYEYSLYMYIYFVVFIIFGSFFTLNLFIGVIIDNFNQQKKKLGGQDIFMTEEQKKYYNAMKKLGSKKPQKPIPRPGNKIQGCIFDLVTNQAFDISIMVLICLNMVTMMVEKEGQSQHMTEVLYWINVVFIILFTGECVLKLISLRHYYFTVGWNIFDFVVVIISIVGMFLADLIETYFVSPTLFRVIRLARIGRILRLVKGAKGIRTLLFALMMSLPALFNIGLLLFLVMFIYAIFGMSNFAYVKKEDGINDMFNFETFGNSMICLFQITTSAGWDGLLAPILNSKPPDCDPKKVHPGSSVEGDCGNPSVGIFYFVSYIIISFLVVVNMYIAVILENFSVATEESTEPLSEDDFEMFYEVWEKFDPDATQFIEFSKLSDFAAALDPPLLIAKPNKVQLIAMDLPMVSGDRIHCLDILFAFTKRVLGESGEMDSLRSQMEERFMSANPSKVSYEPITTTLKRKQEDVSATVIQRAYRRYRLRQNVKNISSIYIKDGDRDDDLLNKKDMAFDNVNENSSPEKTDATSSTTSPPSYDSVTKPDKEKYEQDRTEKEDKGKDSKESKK

Structure (SMILES)	IC50
CS(=O)(=O)NC(=O)c1ccc(Oc2ccc(Cl)cc2)c(-c2ccc(C(F)(F)F)cc2)c1 [Example 43, 6-(4-chlorophenoxy)-N-(methylsulfonyl)-4′-(trifluoromethyl)biphenyl-3-carboxamide]	630 nM
COc1cc(-c2cc(C(=O)NS(C)(=O)=O)ccc2Oc2ccc(Cl)cc2)ccn1 [Example 45, 4-(4-chlorophenoxy)-3-(2-methoxypyridin-4-yl)-N-(methylsulfonyl)benzamide]	2000 nM
Cn1cc(-c2cc(C(=O)NS(C)(=O)=O)ccc2Oc2ccc(Cl)cc2)cn1 [Example 48, 4-(4-chlorophenoxy)-3-(1-methyl-1H-pyrazol-4-yl)-N-(methylsulfonyl)benzamide]	9800 nM
CS(=O)(=O)NC(=O)c1ccc(Oc2ccc(Cl)cc2)c(-c2cnc(N)nc2)c1 [Example 49, 3-(2-aminopyrimidin-5-yl)-4-(4-chlorophenoxy)-N-(methylsulfonyl)benzamide]	> 3000 nM
COc1ccc(-c2cc(C(=O)NS(C)(=O)=O)ccc2Oc2ccc(Cl)cc2)cc1 [Example 50, 6-(4-chlorophenoxy)-4′-methoxy-N-(methylsulfonyl)-biphenyl-3-carboxamide]	730 nM
COc1ncccc1-c1cc(C(=O)NS(C)(=O)=O)ccc1Oc1cccc(C(C)C)c1 [Example 54, 4-(3-isopropylphenoxy)-3-(2-methoxypyridin-3-yl)-N-(methylsulfonyl)benzamide]	120 nM
COc1ncccc1-c1cc(C(=O)NS(C)(=O)=O)ccc1Oc1ccc(C#N)cc1 [Example 56, 4-(4-cyanophenoxy)-3-(2-methoxypyridin-3-yl)-N-(methylsulfonyl)benzamide]	2400 nM
COc1cc(Cl)cc(Oc2ccc(C(=O)NS(C)(=O)=O)cc2-c2cccnc2OC)c1 [Example 57, 4-(3-chloro-5-methoxyphenoxy)-3-(2-methoxypyridin-3-yl)-N-(methylsulfonyl)benzamide]	660 nM
CCc1cc(Oc2ccc(C(=O)NS(C)(=O)=O)cc2-c2cccnc2OC)ccc1Cl [Example 60, 4-(4-chloro-3-ethylphenoxy)-3-(2-methoxypyridin-3-yl)-N-(methylsulfonyl)benzamide]	18 nM
COCc1ccc(Oc2ccc(C(=O)NS(C)(=O)=O)cc2-c2cccnc2OC)cc1 [Example 62, 4-[4-(methoxymethyl)phenoxy]-3-(2-methoxypyridin-3-yl)-N-(methylsulfonyl)benzamide]	1200 nM
CCc1ccc(Oc2ccc(C(=O)NS(C)(=O)=O)cc2-c2cccnc2OC)cn1 [Example 63, 4-[(6-ethylpyridin-3-yl)oxy]-3-(2-methoxypyridin-3-yl)-N-(methylsulfonyl)benzamide]	3900 nM
COc1ccc(Oc2ccc(C(=O)NS(C)(=O)=O)cc2-c2cccnc2OC)cc1 [Example 65, 4-(4-methoxyphenoxy)-3-(2-methoxypyridin-3-yl)-N-(methylsulfonyl)benzamide]	640 nM
COc1ncccc1-c1cc(C(=O)NS(C)(=O)=O)ccc1Oc1cccc(OC(F)(F)F)c1 [Example 68, 3-(2-methoxypyridin-3-yl)-N-(methylsulfonyl)-4-[3-(trifluoromethoxy)phenoxy]benzamide]	83 nM
COc1ccc(Oc2ccc(C(=O)NS(C)(=O)=O)cc2-c2cccnc2OC)cn1 [Example 70, 3-(2-methoxypyridin-3-yl)-4-[(6-methoxypyridin-3-yl)oxy]-N-(methylsulfonyl)benzamide]	2200 nM
COc1ncccc1-c1cc(C(=O)NS(C)(=O)=O)ccc1Oc1cc(F)cc(C(F)(F)F)c1 [Example 72, 4-[3-fluoro-5-(trifluoromethyl)phenoxy]-3-(2-methoxypyridin-3-yl)-N-(methylsulfonyl)benzamide]	100 nM
COc1ncccc1-c1cc(C(=O)NS(C)(=O)=O)ccc1Oc1ccc(C)cc1 [Example 73, 3-(2-methoxypyridin-3-yl)-4-(4-methylphenoxy)-N-(methylsulfonyl)benzamide]	170 nM
COc1ccc(Oc2ccc(C(=O)NS(C)(=O)=O)cc2-c2cccnc2OC)cc1Cl [Example 75, 4-(3-chloro-4-methoxyphenoxy)-3-(2-methoxypyridin-3-yl)-N-(methylsulfonyl)benzamide]	310 nM

Other lines, results leading:

IC50	Structure (SMILES)
92 nM	COc1ncccc1-c1cc(C(=O)NS(C)(=O)=O)ccc1Oc1ccc(Cl)cc1 [Example 47, 4-(4-chlorophenoxy)-3-(2-methoxypyridin-3-yl)-N-(methylsulfonyl)benzamide]
1700 nM	COc1ncccc1-c1cc(C(=O)NS(C)(=O)=O)ccc1Oc1ccccc1F [Example 51, 4-(2-fluorophenoxy)-3-(2-methoxypyridin-3-yl)-N-(methylsulfonyl)benzamide]
460 nM	COc1ncccc1-c1cc(C(=O)NS(C)(=O)=O)ccc1Oc1cccc(Cl)c1 [Example 52, 4-(3-chlorophenoxy)-3-(2-methoxypyridin-3-yl)-N-(methylsulfonyl)benzamide]
120 nM	COc1ncccc1-c1cc(C(=O)NS(C)(=O)=O)ccc1Oc1cc(F)cc(Cl)c1 [Example 53, 4-(3-chloro-5-fluorophenoxy)-3-(2-methoxypyridin-3-yl)-N-(methylsulfonyl)benzamide]
440 nM	COc1ncccc1-c1cc(C(=O)NS(C)(=O)=O)ccc1Oc1ccc(F)c(F)c1 [Example 55, 4-(3,4-difluorophenoxy)-3-(2-methoxypyridin-3-yl)-N-(methylsulfonyl)benzamide]
> 1000 nM	COc1ncccc1-c1cc(C(=O)NS(C)(=O)=O)ccc1Oc1ccccc1OC(F)(F)F [Example 58, 3-(2-methoxypyridin-3-yl)-N-(methylsulfonyl)-4-[2-(trifluoromethoxy)phenoxy]benzamide]
370 nM	COc1ncccc1-c1cc(C(=O)NS(C)(=O)=O)ccc1Oc1cccc(F)c1 [Example 59, 4-(3-fluorophenoxy)-3-(2-methoxypyridin-3-yl)-N-(methylsulfonyl)benzamide]
66 nM	COc1ncccc1-c1cc(C(=O)NS(C)(=O)=O)ccc1Oc1cccc(C(F)(F)F)c1 [Example 61, 3-(2-methoxypyridin-3-yl)-N-(methylsulfonyl)-4-[3-(trifluoromethyl)phenoxy]benzamide]
540 nM	COc1ncccc1-c1cc(C(=O)NS(C)(=O)=O)ccc1Oc1ccc(Cl)cc1F [Example 64, 4-(4-chloro-2-fluorophenoxy)-3-(2-methoxypyridin-3-yl)-N-(methylsulfonyl)benzamide]
98 nM	COc1ncccc1-c1cc(C(=O)NS(C)(=O)=O)ccc1Oc1ccc(Cl)c(F)c1 [Example 66, 4-(4-chloro-3-fluorophenoxy)-3-(2-methoxypyridin-3-yl)-N-(methylsulfonyl)benzamide]
2800 nM	CCOc1ccccc1Oc1ccc(C(=O)NS(C)(=O)=O)cc1-c1cccnc1OC [Example 67, 4-(2-ethoxyphenoxy)-3-(2-methoxypyridin-3-yl)-N-(methylsulfonyl)benzamide]
440 nM	COc1ncccc1-c1cc(C(=O)NS(C)(=O)=O)ccc1Oc1cc(F)cc(F)c1 [Example 69, 4-(3,5-difluorophenoxy)-3-(2-methoxypyridin-3-yl)-N-(methylsulfonyl)benzamide]
2500 nM	COc1ncccc1-c1cc(C(=O)NS(C)(=O)=O)ccc1Oc1cccc(C#N)c1 [Example 71, 4-(3-cyanophenoxy)-3-(2-methoxypyridin-3-yl)-N-(methylsulfonyl)benzamide]
1900 nM	COc1ncccc1-c1cc(C(=O)NS(C)(=O)=O)ccc1Oc1cccc(F)c1F [Example 74, 4-(2,3-difluorophenoxy)-3-(2-methoxypyridin-3-yl)-N-(methylsulfonyl)benzamide]
> 1000 nM	COc1ncccc1-c1cc(C(=O)NS(C)(=O)=O)ccc1Oc1ccc(Cl)cn1 [Example 76, 4-[(5-chloropyridin-2-yl)oxy]-3-(2-methoxypyridin-3-yl)-N-(methylsulfonyl)benzamide]
